The values below come from patent US11034671B2, “Apoptosis signal-regulating kinase inhibitors and uses thereof” (SICHUAN HAISCO PHARMACEUTICAL CO., LTD., priority 2017, dated 2021).

Some results are limits rather than exact numbers.

Sequence of ASK1 (Q99683 whole entry): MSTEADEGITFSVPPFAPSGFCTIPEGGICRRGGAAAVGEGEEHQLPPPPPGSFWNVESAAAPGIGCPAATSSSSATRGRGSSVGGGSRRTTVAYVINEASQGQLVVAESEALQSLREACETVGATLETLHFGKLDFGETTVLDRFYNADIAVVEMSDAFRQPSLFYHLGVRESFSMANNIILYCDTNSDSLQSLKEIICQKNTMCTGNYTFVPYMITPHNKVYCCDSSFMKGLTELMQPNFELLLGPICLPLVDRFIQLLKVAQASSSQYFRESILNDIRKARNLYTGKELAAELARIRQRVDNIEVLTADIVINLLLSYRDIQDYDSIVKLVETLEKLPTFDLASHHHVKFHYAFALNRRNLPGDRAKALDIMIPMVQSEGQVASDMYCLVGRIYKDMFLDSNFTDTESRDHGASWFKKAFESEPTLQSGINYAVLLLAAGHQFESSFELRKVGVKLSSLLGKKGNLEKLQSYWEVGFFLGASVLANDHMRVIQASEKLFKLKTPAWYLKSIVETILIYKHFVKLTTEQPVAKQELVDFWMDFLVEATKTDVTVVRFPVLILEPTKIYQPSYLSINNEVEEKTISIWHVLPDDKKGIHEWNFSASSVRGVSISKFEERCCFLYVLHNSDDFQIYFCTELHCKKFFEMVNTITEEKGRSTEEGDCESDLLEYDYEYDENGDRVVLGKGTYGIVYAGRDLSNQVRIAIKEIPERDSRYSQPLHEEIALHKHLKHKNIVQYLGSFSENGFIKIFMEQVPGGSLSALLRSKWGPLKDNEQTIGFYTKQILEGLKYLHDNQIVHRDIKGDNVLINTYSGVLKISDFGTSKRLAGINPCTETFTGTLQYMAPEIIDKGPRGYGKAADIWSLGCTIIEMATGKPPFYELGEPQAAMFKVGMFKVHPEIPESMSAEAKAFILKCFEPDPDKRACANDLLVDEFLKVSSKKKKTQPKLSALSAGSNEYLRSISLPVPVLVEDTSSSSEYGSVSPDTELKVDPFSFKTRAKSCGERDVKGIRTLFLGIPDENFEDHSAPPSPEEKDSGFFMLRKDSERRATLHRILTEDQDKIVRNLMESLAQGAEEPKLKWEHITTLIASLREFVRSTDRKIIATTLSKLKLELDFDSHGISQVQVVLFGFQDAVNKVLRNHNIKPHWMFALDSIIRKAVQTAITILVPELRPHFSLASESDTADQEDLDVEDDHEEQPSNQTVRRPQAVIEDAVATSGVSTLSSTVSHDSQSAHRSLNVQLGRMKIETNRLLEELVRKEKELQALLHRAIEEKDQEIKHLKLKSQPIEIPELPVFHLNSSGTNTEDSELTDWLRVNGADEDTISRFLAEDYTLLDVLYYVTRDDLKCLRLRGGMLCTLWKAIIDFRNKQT

For this experiment, the target named is ASK1 (Homo sapiens (Human), UniProt Q99683). The experiment in a line: ASK1 KINOMEscan assay (biochemical Kd), competition binding. The settings on record: DNA-tagged ASK1 kinase, 11-point 3-fold dilution. On the procedure:
The binding of compounds to ASK1 were determined using DiscoverX's proprietary technology. […] The assay is performed by combining three components: DNA-tagged ASK1 kinase; immobilized ligand; and a test compound. The ability of the test compound to compete with the immobilized ligand is measured via quantitative PCR of the DNA tag. […] The liganded beads were blocked with excess biotin and washed with blocking buffer (SeaBlock (Pierce), 1% BSA, 0.05% Tween 20, 1 mM DTT) to remove unbound ligand and to reduce nonspecific binding. […] Kds were determined using an 11-point 3-fold compound dilution series with three DMSO control points. […] The compounds were then diluted directly into the assays such that the final concentration of DMSO was 0.9%. All reactions were performed in polypropylene 384-well plate. […] The kinase concentration in the eluates was measured by qPCR. Most Kds were determined using a compound top concentration=30,000 nM. […] Binding constants (Kds) were calculated with a standard dose-response curve using the Hill equation: Response=Background+{(Signal−Background)/[1+(Kd^Hill Slope/Dose^Hill Slope)]}, the Hill Slope was set to −1, and curves were fitted using a non-linear least square fit with the Levenberg-Marquardt algorithm.
On to `O=C1Nc2cccc(n2)-c2nncn2CCCOCc2ccc(-c3ccc(C(F)(F)F)nc3)cc21` [Example 101], for which the Kd (in general, the equilibrium constant for the complex coming apart) lay within 10 to 100 nM.

On to `O=C1Nc2cccc(n2)-c2nncn2CCCOCc2ccc(-c3ccc(CF)nc3)cc21` [Example 100], for which the Kd is under 10 nM.

On to `O=C1Nc2cccc(n2)-c2nncn2CCCOc2ccc(-c3ccc(C(F)F)nc3)cc21` [Example 79], for which the Kd was in the range of 10 to 100 nM.

In turn, `CCc1ccc(-c2ccc3c(c2)C(=O)Nc2cccc(n2)-c2nncn2CCCOC3)cn1` [Example 102] registered a dissociation constant Kd of under 10 nM.

In the case of `O=C1Nc2cccc(n2)-c2nncn2CCCOc2ccc(Br)cc21` [Example 33], the Kd was in the range of 100 to 1000 nM.

With `O=C1Nc2cccc(n2)-c2nncn2CC=CCCOc2ccc(Br)cc21` [Example 10], the Kd is under 10 nM.

The molecule `Cn1ncc2cc(-c3ccc4c(c3)C(=O)Nc3cccc(n3)-c3nncn3CCCCO4)ccc21` [Example 55] registered a Kd of under 10 nM.

As for `O=C1Nc2cccc(n2)-c2nncn2C/C=C/COc2ccc(OCc3ccccc3)cc21` [Example 18], the Kd is under 10 nM.

For `O=C1Nc2cccc(n2)-c2nncn2CCCOCc2ccc(-c3cnc(F)c(F)c3)cc21` [Example 107], the Kd lay within 10 to 100 nM.

`Cc1ccc(-c2ccc3c(c2)C(=O)Nc2cccc(n2)-c2nncn2[C@H]2C[C@@H](CO3)C2)cn1` [Example 69] yielded a Kd of under 10 nM.

In turn, `Cc1ccc(-c2ccc3c(c2)C(=O)Nc2cccc(n2)-c2nncn2CCCS3)cn1` [Example 91] had a Kd of over 1000 nM.

In turn, `O=C1Nc2cccc(n2)-c2nncn2CCCCOc2ccc(Cl)cc21` [Example 41] showed a Kd of 10 to 100 nM.

`O=C1Nc2cccc(n2)-c2nncn2CCCCCc2ccc(-c3ccc(C4CC4)nc3)cc21` [Example 8] showed a Kd of 10 to 100 nM.

On to `Cc1ccc(-c2ccc3c(c2)C(=O)Nc2cccc(n2)-c2nncn2CC(C)CCO3)cn1` (stereo not drawn) [Example 80], for which the Kd was under 10 nM.

In turn, `O=C1Nc2cccc(n2)-c2nncn2[C@H]2CCC(C2)Oc2ccc(-c3ccc(C(F)F)nc3)cc21` [Example 86] registered a Kd of under 10 nM.

With `O=C1Nc2cccc(n2)-c2nncn2CCCCOc2ccc(-c3cnc(F)c(Cl)c3)cc21` [Example 99], the dissociation constant (Kd) was under 10 nM.

On to `O=C1Nc2cccc(n2)-c2nncn2CC=CCCCOc2ccc(Br)cc21` [Example 12], for which the Kd is 10 to 100 nM.

`O=C1Nc2cccc(n2)-c2nncn2CCCOCc2ccc(-c3ccc(C4CC4)nc3)cc21` [Example 95] returned a Kd of under 10 nM.

Molecule `COc1ccc2c(c1)C(=O)Nc1cccc(n1)-c1nncn1CC/C=C/C2` [Example 4] displayed a Kd of over 1000 nM.

As to `O=C1Nc2cccc(n2)-c2nncn2C/C=C\COc2ccc(Br)cc21` [Example 16], the Kd was in the range of 10 to 100 nM.

In turn, `O=C1Nc2cccc(n2)-c2nncn2CCCOCc2ccc(-c3cnc(F)c(Cl)c3)cc21` [Example 106] yielded a Kd of 10 to 100 nM.

`O=C1Nc2cccc(n2)-c2nncn2CCCCOc2ccc(C(F)(F)F)cc21` [Example 32] yielded a Kd of 10 to 100 nM.

Turning to `CC(C)n1nccc1-c1ccc2c(c1)C(=O)Nc1cccc(n1)-c1nncn1CCCCO2` [Example 45], the Kd lay in the range of 100 to 1000 nM.

In turn, `COc1ccc2c(c1)C(=O)Nc1cccc(n1)-c1nncn1CC=CCO2` [Example 6] gave a Kd of 10 to 100 nM.

Molecule `COc1cc2c(cc1Br)OCCCCn1cnnc1-c1cccc(n1)NC2=O` [Example 59] came in with a Kd of 100 to 1000 nM.

The molecule `O=C1Nc2cccc(n2)-c2nncn2CC=CCCCOc2ccc(-c3ccc(C4CC4)nc3)cc21` [Example 13] displayed a Kd of over 1000 nM.

Molecule `O=C1Nc2cccc(n2)-c2nncn2CC=CCCOc2ccc(-c3ccc(C4CC4)nc3)cc21` [Example 14] yielded a Kd of 10 to 100 nM.

The molecule `O=C1Nc2cccc(n2)-c2nncn2C2CC(C2)Oc2ccc(-c3ccc(C(F)F)nc3)cc21` [Example 93] gave a Kd of 100 to 1000 nM.

As to `Cc1cc2c(cc1-c1ccc(C3CC3)nc1)C(=O)Nc1cccc(n1)-c1nncn1CCCCO2` [Example 65], the Kd was under 10 nM.

In turn, `N#Cc1ccc2c(c1)OCCCCn1cnnc1-c1cccc(n1)NC2=O` [Example 96] showed a Kd of 10 to 100 nM.

The molecule `O=C1Nc2cccc(n2)-c2nncn2C/C=C/CCOc2ccc(OCc3ccccc3)cc21` [Example 17] came in with a Kd of 10 to 100 nM.

`CCc1ccc(-c2ccc3c(c2)C(=O)Nc2cccc(n2)-c2nncn2CCCS3)cn1` [compound 92] had a dissociation constant (Kd) of under 10 nM.

As for `N#Cc1cc2c(cc1F)OCCCCn1cnnc1-c1cccc(n1)NC2=O` [Example 44], the Kd was in the range of 10 to 100 nM.

`Cc1ccc(-c2ccc3c(c2)C(=O)Nc2cccc(n2)-c2nncn2[C@H]2CC[C@H](CC2)O3)cn1` [Example 71]: the Kd is under 10 nM.

`O=C1Nc2cccc(n2)-c2nncn2CCCOCc2ccc(-n3cnc(C4CC4)c3)cc21` [Example 103] came in with a Kd of under 10 nM.

Regarding `Cc1ccc(-c2ccc3c(c2)C(=O)Nc2cccc(n2)-c2nncn2C2C[C@H]2CCO3)cn1` (stereo in doubt) [Example 97], the equilibrium dissociation constant (Kd) was under 10 nM.

On to `Cc1ccc(-c2ccc3c(c2)C(=O)Nc2cccc(n2)-c2nncn2C[C@@H]2CC2CO3)cn1` (stereo partly drawn) [Example 81], for which the Kd is under 10 nM.

`N#Cc1ccc2c(c1)C(=O)Nc1cccc(n1)-c1nncn1CCCCO2` [Example 31] had a Kd of under 10 nM.

With `COc1ccc2c(c1)C(=O)Nc1cccc(n1)-c1nncn1CCCCO2` [Example 7], the Kd was under 10 nM.

On to `O=C1Nc2cccc(n2)-c2nncn2CCCCOc2cc(F)c(Br)cc21` [Example 28], for which the Kd lay in the range of 100 to 1000 nM.

The molecule `Cc1ccc(-c2ccc3c(c2)C(=O)Nc2cccc(n2)-c2nncn2CC[C@@H](C)CO3)cn1` [Example 104] yielded a Kd of under 10 nM.

With `O=C1Nc2cccc(n2)-c2nncn2CCCCOc2ccc(OC3CCOC3)cc21` (stereo not drawn) [Example 20], the Kd lay in the range of 10 to 100 nM.

`Cc1ccc(-c2ccc3c(c2)C(=O)Nc2cccc(n2)-c2nncn2CCO3)cn1` [Example 72] yielded an equilibrium dissociation constant (Kd) of over 1000 nM.

Take `O=C1Nc2cccc(n2)-c2nncn2CCCCOc2ccc(-c3ccc4nccn4c3)cc21` [Example 58]: the Kd is under 10 nM.

With `COc1ccc2c(c1)C(=O)Nc1cccc(n1)-c1nncn1CCC/C=C/CO2` [Example 3], the Kd lay in the range of 10 to 100 nM.

`Cc1ccc(-c2cc3c(cc2C)OCCCCn2cnnc2-c2cccc(n2)NC3=O)cn1` [Example 51] gave a Kd of under 10 nM.

On to `Cc1ccc(-c2cc3c(cc2F)OCCCCn2cnnc2-c2cccc(n2)NC3=O)cn1` [Example 64], for which the Kd is 100 to 1000 nM.

`CC1CCOc2ccc(-c3ccc(C(F)F)nc3)cc2C(=O)Nc2cccc(n2)-c2nncn21` (stereo not drawn) [Example 83] displayed a Kd of over 1000 nM.

Molecule `O=C1Nc2cccc(n2)-c2nncn2CCCCOc2cc(F)c(-c3ccc(C4CC4)nc3)cc21` [Example 68] displayed a Kd of under 10 nM.

Consider `Cc1ccc(-c2ccc3c(c2)C(=O)Nc2cccc(n2)-c2nncn2[C@H](C)CCCO3)cn1` [Example 89], for which the Kd is under 10 nM.

For `COc1ccc2c(c1)C(=O)Nc1cccc(n1)-c1nncn1CCCCC2` [Example 5], the Kd was 100 to 1000 nM.

With `O=C1Nc2cccc(n2)-c2nncn2[C@H]2CC[C@H](CC2)Oc2ccc(-c3ccc(C(F)F)nc3)cc21` [Example 84], the Kd was under 10 nM.

Turning to `COc1cc2c(cc1OC)C(=O)Nc1cccc(n1)-c1nncn1CCCCO2` [Example 29], the dissociation constant Kd was in the range of 100 to 1000 nM.

`Cc1ncc(-c2ccc3c(c2)C(=O)Nc2cccc(n2)-c2nncn2CCCCO3)cc1Cl` [Example 75] had a Kd of 10 to 100 nM.

`O=C1Nc2cccc(n2)-c2nncn2CCCCOc2ccc(-c3cnc(F)c(F)c3)cc21` [Example 98] returned a Kd of under 10 nM.

In turn, `O=C1Nc2cccc(n2)-c2nncn2CCCOCc2ccc(-c3ccc(C(F)F)nc3)cc21` [Example 82] yielded a Kd of under 10 nM.

Molecule `O=C1Nc2cccc(n2)-c2nncn2CCCCOc2cc(F)c(F)cc21` [Example 25] registered a Kd of 100 to 1000 nM.

In turn, `O=C1Nc2cccc(c2)-c2nncn2CCCOc2ccc(-c3ccc(C4CC4)nc3)cc21` [Example 21] had a Kd of over 1000 nM.

In turn, `Cc1ccc(-c2ccc3c(c2)C(=O)Nc2cccc(n2)-c2nncn2[C@@H](C)CCCO3)cn1` [Example 88] yielded a Kd of under 10 nM.

`Cc1ccc(-c2ccc3c(c2)C(=O)Nc2cccc(n2)-c2nncn2C[C@H]2CC2CO3)cn1` (stereo partly drawn) [Example 77] had a Kd of under 10 nM.

In turn, `COc1ccc2c(c1)C(=O)Nc1cccc(n1)-c1nncn1CC=CC2` [Example 94] came in with a Kd of over 1000 nM.

Take `Cc1ncc(-c2ccc3c(c2)C(=O)Nc2cccc(n2)-c2nncn2CCCCO3)cn1` [Example 73]: the Kd is under 10 nM.

Regarding `Cc1ccc(-c2ccc3c(c2)C(=O)Nc2cccc(n2)-c2nncn2CCCO3)cn1` [Example 60], the Kd is under 10 nM.

As for `COc1ccc2c(c1)C(=O)Nc1cccc(n1)-c1nncn1CCCCCO2` [Example 2], the Kd was under 10 nM.

On to `O=C1Nc2cccc(n2)-c2nncn2CCCOc2ccc(-c3ccc(C(F)F)nc3)cc21` [Example 90], for which the Kd is over 1000 nM.

Turning to `CC(C)(O)c1ccc2c(c1)OCCCCn1cnnc1-c1cccc(n1)NC2=O` [Example 53], the dissociation constant Kd was under 10 nM.

In turn, `COc1ccc2c(c1)C(=O)Nc1cccc(n1)-c1nncn1CCCCCCO2` [Example 11] showed a Kd of under 10 nM.

Molecule `O=C1Nc2cccc(n2)-c2nncn2CCCCCCOc2ccc(-c3ccc(C4CC4)nc3)cc21` [Example 9] displayed a Kd of 100 to 1000 nM.

Take `CC(F)(F)c1ccc(-c2ccc3c(c2)C(=O)Nc2cccc(n2)-c2nncn2CCCCO3)cn1` [Example 78]: the Kd is under 10 nM.
